Measurements taken from patent US11161852B1 (Halia Therapeutics, Inc., priority 2020, dated 2021).

Legend:
[1] = system: IL-1β release from THP-1 cells; test: IL-1β Release Assay (PMA-differentiated THP-1 cells, LPS + nigericin); assay type: cell-based; details: Homo sapiens, 250 ng/mL LPS, 20 μM nigericin
Protocol: Approximately 1.5 million THP-1 cells were plated in each well of a 6-well TC plate and incubated with 40 nM PMA in RPMI (10% FBS, 1% Penstrep) for 24 hours. The media was then removed and cells were rested in RPMI (10% FBS, 1% Penstrep) for 24 hours after which time the media was removed and cells were pre-treated for 2 hours with various concentrations of compounds of interest (typically serial 3-fold dilution in RPMI+5% FBS, concentrations ranging from 1 μM to 0.5 nM) in RPMI (5% FBS). The media was again removed and cells were incubated with 250 ng/mL LPS and compounds of interest (concentrations as above) in RMPI (5% FBS) for 2 hours. The media was removed for a last time and cells were incubated with 20 μM nigericin and compounds of interest (concentrations as above) in Opti-MEM for 30 minutes. Cell media was then collected and the amount of cleaved IL-1β was determined using a JESS instrument (Protein Simple) and standard protocols. Cleaved Il-1β antibody was obtained from Cell Signaling (catalogue #83186S) and was used at 1:20 dilution in antibody diluent 2. Protein Simple 1× anti-Rabbit HRP secondary antibody was used along with Protein Simple luminol and peroxide for chemiluminescent detection. Primary antibody incubation time was increased from 30 minutes to 60 minutes.

[2] = biological target: full-length recombinant human NEK7 (Homo sapiens (Human), UniProt Q8TDX7); test: NEK7 Enzymatic Assay ([33P]-ATP, casein substrate); assay type: biochemical
Chain of full-length recombinant human NEK7 (Q8TDX7 whole entry): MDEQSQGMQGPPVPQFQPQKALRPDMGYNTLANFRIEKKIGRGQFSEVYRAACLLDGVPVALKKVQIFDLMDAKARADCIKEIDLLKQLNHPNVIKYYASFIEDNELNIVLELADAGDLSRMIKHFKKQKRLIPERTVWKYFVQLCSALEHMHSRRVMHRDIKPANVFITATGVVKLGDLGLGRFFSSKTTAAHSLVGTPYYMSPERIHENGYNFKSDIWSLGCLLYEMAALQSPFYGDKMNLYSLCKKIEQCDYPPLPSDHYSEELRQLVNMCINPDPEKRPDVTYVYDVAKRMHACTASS
Protocol: Casein substrate (from bovine milk, hydrolyzed and partially dephosphorylated mixture of α, β and a caseins, obtained from Sigma Aldrich, catalogue #C4765, diluted in distilled water to a final concentration of 1 mg/mL) and full-length recombinant human NEK7 (expressed by baculovirus in Sf9 insect cells using a N-terminal GST tag, obtained from SignalChem, catalogue #N09-10G, 0.1 μg/μL) were mixed in assay buffer (20 mM Hepes pH 7.5, 10 mM MgCl2, 1 mM EGTA, 0.02% Brij35, 0.02 mg/ml BSA, 0.1 mM Na3VO4, 2 mM DTT, 1% DMSO). Compounds of interest (serial 3-fold dilution in DMSO from 10 μM to 0.5 nM) or vehicle (1% DMSO) were dispensed into the kinase reaction mixture by Acoustic technology (Echo550; nanoliter range). After incubation at room temperature for 20 minutes, the kinase reaction was initiated by addition of [^33P]-ATP (specific activity […]) and the mixture was incubated at room temperature for 2 hours. The reaction was then stopped by spotting the reaction mixture on strips of phosphocellulose P81 paper. Following washing, the radioactivity of the P81 paper was measured and kinase activity data were expressed as the percent remaining kinase activity in test samples compared to vehicle reactions. IC50 values and curve fits were obtained using Prism (GraphPad Software).

IC50 [1] [nM] | IC50 [2] [nM] | SMILES
< 150 | < 150 | CC(C)(C)c1cc(NC(=O)Nc2ccc(-c3cn(C4CC4)c4ncnc(N)c34)cc2F)on1 [Example 2, 1-(4-(4-amino-7-cyclopropyl-7H-pyrrolo[2,3-d]pyrimidin-5-yl)-2-fluorophenyl)-3-(3-(tert-butyl)isoxazol-5-yl)urea]
151 to 300 | < 150 | CC(C)(C)c1cc(NC(=O)Nc2ccc(-c3cn(C4CC4)c4ncnc(N)c34)cn2)on1 [Example 3, 1-(5-(4-amino-7-cyclopropyl-7H-pyrrolo[2,3-d]pyrimidin-5-yl)pyridin-2-yl)-3-(3-(tert-butyl)isoxazol-5-yl)urea]
< 150 | < 150 | Nc1ncnc2c1c(-c1ccc(NC(=O)Nc3cc(C4(C(F)(F)F)CC4)no3)c(F)c1)cn2C1CC1 [Example 5, 1-(4-(4-amino-7-cyclopropyl-7H-pyrrolo[2,3-d]pyrimidin-5-yl)-2-fluorophenyl)-3-(3-(1-(trifluoromethyl)cyclopropyl)isoxazol-5-yl)urea]
151 to 300 | < 150 | CC(C)(F)c1cc(NC(=O)Nc2ccc(-c3cn(C4CC4)c4ncnc(N)c34)cc2F)on1 [Example 9, 1-(4-(4-amino-7-cyclopropyl-7H-pyrrolo[2,3-d]pyrimidin-5-yl)-2-fluorophenyl)-3-(3-(2-fluoropropan-2-yl)isoxazol-5-yl)urea]
< 150 | 151 to 300 | Nc1ncnc2c1c(-c1ccc(NC(=O)Nc3cc(C4(C(F)(F)F)CC4)on3)c(F)c1)cn2C1CC1 [Example 10, 1-(4-(4-amino-7-cyclopropyl-7H-pyrrolo[2,3-d]pyrimidin-5-yl)-2-fluorophenyl)-3-(5-(1-(trifluoromethyl)cyclopropyl)isoxazol-3-yl)urea]
 | > 1500 | Nc1ncnc2c1c(-c1c(F)cc(NC(=O)Nc3cc(C4(C(F)(F)F)CC4)no3)cc1F)cn2C1CC1 [Example 43, 1-(4-(4-amino-7-cyclopropyl-7H-pyrrolo[2,3-d]pyrimidin-5-yl)-3,5-difluorophenyl)-3-(3-(1-(trifluoromethyl)cyclopropyl)isoxazol-5-yl)urea]
 | 501 to 1500 | Nc1ncnc2c1c(-c1cnc(NC(=O)Nc3cc(C4(C(F)(F)F)CC4)no3)c(F)c1)cn2C1CC1 [Example 44]
 | 151 to 300 | Nc1ncnc2c1c(-c1ccc(NC(=O)Nc3cc(C4(C(F)(F)F)CCC4)no3)c(F)c1)cn2C1CC1 [Example 45, 1-(4-(4-amino-7-cyclopropyl-7H-pyrrolo[2,3-d]pyrimidin-5-yl)-2-fluorophenyl)-3-(3-(1-(trifluoromethyl)cyclobutyl)isoxazol-5-yl)urea]
 | < 150 | CC(C)(O)Cn1cc(-c2ccc(NC(=O)Nc3cc(C4(C(F)(F)F)CC4)no3)nc2)c2c(N)ncnc21 [Example 46, 1-(5-(4-amino-7-(2-hydroxy-2-methylpropyl)-7H-pyrrolo[2,3-d]pyrimidin-5-yl)pyridin-2-yl)-3-(3-(1-(trifluoromethyl)cyclopropyl)isoxazol-5-yl)urea]
 | > 1500 | Nc1ncnc2c1c(-c1cnc(NC(=O)Nc3cc(C4(C(F)(F)F)CC4)no3)nc1)cn2C1CC1 [Example 48, 1-(5-(4-amino-7-cyclopropyl-7H-pyrrolo[2,3-d]pyrimidin-5-yl)pyrimidin-2-yl)-3-(3-(1-(trifluoromethyl)cyclopropyl)isoxazol-5-yl)urea]
 | > 1500 | Nc1ncnc2c1c(-c1ccc(NC(=O)Nc3cc(C4(C(F)(F)F)CC4)no3)c(CO)c1)cn2C1CC1 [Example 49, 1-(4-(4-amino-7-cyclopropyl-7H-pyrrolo[2,3-d]pyrimidin-5-yl)-2-(hydroxymethyl)phenyl)-3-(3-(1-(trifluoromethyl)cyclopropyl)isoxazol-5-yl)urea]
 | > 1500 | N#Cc1cc(-c2cn(C3CC3)c3ncnc(N)c23)ccc1NC(=O)Nc1cc(C2(C(F)(F)F)CC2)no1 [Example 50, 1-(4-(4-amino-7-cyclopropyl-7H-pyrrolo[2,3-d]pyrimidin-5-yl)-2-cyanophenyl)-3-(3-(1-(trifluoromethyl)cyclopropyl)isoxazol-5-yl)urea]
 | < 150 | COCCn1cc(-c2ccc(NC(=O)Nc3cc(C4(C(F)(F)F)CC4)no3)c(F)c2)c2c(N)ncnc21 [Example 51, 1-(4-(4-amino-7-(2-methoxyethyl)-7H-pyrrolo[2,3-d]pyrimidin-5-yl)-2-fluorophenyl)-3-(3-(1-(trifluoromethyl)cyclopropyl)isoxazol-5-yl)urea]
 | < 150 | Nc1ncnc2c1c(-c1ccc(NC(=O)Nc3cc(C4(C(F)(F)F)CC4)no3)c(F)c1)cn2CCO [Example 52, 1-(4-(4-amino-7-(2-hydroxyethyl)-7H-pyrrolo[2,3-d]pyrimidin-5-yl)-2-fluorophenyl)-3-(3-(1-(trifluoromethyl)cyclopropyl)isoxazol-5-yl)urea]
 | 301 to 500 | Nc1ncnc2c1c(-c1ccc(NC(=O)Nc3cc(C4(C(F)(F)F)CC4)no3)c(F)c1)cn2C1CCC1 [Example 53, 1-(4-(4-amino-7-cyclobutyl-7H-pyrrolo[2,3-d]pyrimidin-5-yl)-2-fluorophenyl)-3-(3-(1-(trifluoromethyl)cyclopropyl)isoxazol-5-yl)urea]
 | > 1500 | Nc1ncnc2c1c(-c1ccc(NC(=O)Nc3cc(C4(C(F)(F)F)CC4)no3)c(Cl)c1)cn2C1CC1 [Example 54, 1-(4-(4-amino-7-cyclopropyl-7H-pyrrolo[2,3-d]pyrimidin-5-yl)-2-chlorophenyl)-3-(3-(1-(trifluoromethyl)cyclopropyl)isoxazol-5-yl)urea]
 | > 1500 | COc1cc(-c2cn(C3CC3)c3ncnc(N)c23)ccc1NC(=O)Nc1cc(C2(C(F)(F)F)CC2)no1 [Example 55, 1-(4-(4-amino-7-cyclopropyl-7H-pyrrolo[2,3-d]pyrimidin-5-yl)-2-methoxyphenyl)-3-(3-(1-(trifluoromethyl)cyclopropyl)isoxazol-5-yl)urea]
 | 301 to 500 | CN1CCC(n2cc(-c3ccc(NC(=O)Nc4cc(C5(C(F)(F)F)CC5)no4)c(F)c3)c3c(N)ncnc32)C1 (centres unmarked) [Example 56, 1-(4-(4-amino-7-(1-methylpyrrolidin-3-yl)-7H-pyrrolo[2,3-d]pyrimidin-5-yl)-2-fluorophenyl)-3-(3-(1-(trifluoromethyl)cyclopropyl)isoxazol-5-yl)urea]
 | < 150 | Nc1ncnc2c1c(-c1ccc(NC(=O)Nc3cc(C4(C(F)(F)F)CCC4)on3)c(F)c1)cn2C1CC1 [Example 57, 1-(4-(4-amino-7-cyclopropyl-7H-pyrrolo[2,3-d]pyrimidin-5-yl)-2-fluorophenyl)-3-(5-(1-(trifluoromethyl)cyclobutyl)isoxazol-3-yl)urea]
 | 501 to 1500 | Nc1ncnc2c1c(-c1ccc(NC(=O)Nc3cc(C4(C(F)(F)F)CC4)on3)c(F)c1)cn2C1CCC1 [Example 58, 1-(4-(4-amino-7-cyclobutyl-7H-pyrrolo[2,3-d]pyrimidin-5-yl)-2-fluorophenyl)-3-(5-(1-(trifluoromethyl)cyclopropyl)isoxazol-3-yl)urea]
 | > 1500 | Nc1ncnc2c1c(-c1ccc(NC(=O)Nc3cc(C4(C(F)(F)F)CC4)no3)cn1)cn2C1CC1 [Example 59, 1-(6-(4-amino-7-cyclopropyl-7H-pyrrolo[2,3-d]pyrimidin-5-yl)pyridin-3-yl)-3-(3-(1-(trifluoromethyl)cyclopropyl)isoxazol-5-yl)urea]
 | > 1500 | Nc1ncnc2c1c(-c1cc(F)c(NC(=O)Nc3cc(C4(C(F)(F)F)CC4)on3)c(F)c1)cn2C1CC1 [Example 60, 1-(4-(4-amino-7-cyclopropyl-7H-pyrrolo[2,3-d]pyrimidin-5-yl)-2,6-difluorophenyl)-3-(5-(1-(trifluoromethyl)cyclopropyl)isoxazol-3-yl)urea]
 | < 150 | Nc1ncnc2c1c(-c1ccc(NC(=O)Nc3cc(C4(C(F)(F)F)CC4)on3)c(F)c1)cn2CCO [Example 61, 1-(4-(4-amino-7-(2-hydroxyethyl)-7H-pyrrolo[2,3-d]pyrimidin-5-yl)-2-fluorophenyl)-3-(5-(1-(trifluoromethyl)cyclopropyl)isoxazol-3-yl)urea]
 | > 1500 | Nc1nccc2c1c(-c1ccc(NC(=O)Nc3cc(C4(C(F)(F)F)CC4)no3)c(F)c1)cn2C1CC1 [Example 62, 1-(4-(4-amino-1-cyclopropyl-1H-pyrrolo[3,2-c]pyridin-3-yl)-2-fluorophenyl)-3-(3-(1-(trifluoromethyl)cyclopropyl)isoxazol-5-yl)urea]
